{
  "source": "patent US11572398B2",
  "about": "“GLP-1 derivatives and uses thereof” (Novo Nordisk A/S, priority 2014, dated 2023)",
  "key": {"[1]": {"experiment": "in vivo", "conditions": "male, Göttingen, minipig, iv", "description": "The purpose of this study is to determine the protraction in vivo of the GLP-1 derivatives after i.v. administration to minipigs, i.e. the prolongation of their time in the body and thereby their time of action. This is done in a pharmacokinetic (PK) study, where the terminal half-life of the derivative in question is determined. By terminal half-life is meant the time it takes to halve a certain plasma concentration in the terminal elimination phase.\nMale Göttingen minipigs were obtained from Ellegaard Göttingen Minipigs (Dalmose, Denmark) approximately 7-14 months of age and weighing approximately 16-35 kg were used in the studies. The minipigs were housed either individually (pigs with permanent catheters) or in a group and fed restrictedly once or twice daily with SDS minipig diet (Special Diets Services, Essex, UK).\nAfter at least 2 weeks of acclimatisation two permanent central venous catheters were implanted in vena cava caudalis or cranialis in each animal. The animals were allowed 1 week recovery after the surgery, and were then used for repeated pharmacokinetic studies with a suitable wash-out period between successive GLP-1 derivative dosings.\nBlood samples (for example 0.8 ml) were collected in EDTA buffer (8 mM) and then centrifuged at 4° C. and 1942G for 10 minutes.\nPlasma was pipetted into Micronic tubes on dry ice, and kept at −20° C. until analysed for plasma concentration of the respective GLP-1 compound using LOCI. Individual plasma concentration-time profiles were analyzed by a non-compartmental pharmacokinetic method in Phoenix v. 6.2 (Pharsight Inc., Mountain View, Calif., USA), or other relevant software for PK analysis, and the resulting terminal half-lives (harmonic mean) determined."}, "[2]": {"biological_target": "T1, human GLP-1 receptor (Homo sapiens, UniProt P43220)", "T1 construct": "expressed in transfected cells; host or cells: BHK cells (parent line BHKTS13), clone FCW467-12A; membrane preparation", "T1 sequence (P43220 24-463)": "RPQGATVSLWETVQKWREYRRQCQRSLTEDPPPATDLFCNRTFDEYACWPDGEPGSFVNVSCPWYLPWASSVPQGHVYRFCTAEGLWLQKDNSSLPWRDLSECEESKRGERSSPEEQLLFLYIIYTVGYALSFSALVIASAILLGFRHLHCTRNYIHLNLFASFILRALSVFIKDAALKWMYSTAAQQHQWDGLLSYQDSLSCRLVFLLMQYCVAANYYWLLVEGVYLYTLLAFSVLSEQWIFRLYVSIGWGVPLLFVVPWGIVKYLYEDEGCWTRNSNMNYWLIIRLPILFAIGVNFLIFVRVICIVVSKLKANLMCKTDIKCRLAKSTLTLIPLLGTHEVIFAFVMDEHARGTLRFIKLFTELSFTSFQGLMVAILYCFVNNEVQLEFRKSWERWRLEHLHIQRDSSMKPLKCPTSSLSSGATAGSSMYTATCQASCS", "experiment": "GLP-1 receptor binding: competitive binding assay (125I-GLP-1, SPA) on isolated membranes at low and high HSA"}, "[3]": {"biological_target": "T1, human GLP-1 receptor", "experiment": "In vitro potency: CRE luciferase reporter gene assay in BHK cells expressing the human GLP-1 receptor", "format": "cell-based", "outline": "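Whole-cell assay in stably transfected BHK cells carrying CRE-driven firefly luciferase, 5×10^3 cells/well, in assay buffer with 2% ovalbumin and 0.2% Pluronic F-68. Compound working solutions were 0.2 μM.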"}, "[4]": {"conditions": "low HSA (max. 0.001% final assay concentration), read-out: Low HSA IC50"}},
  "note": "Like-named read-outs stand apart in the source and are kept apart here.",
  "data": [
    {"compound": "CC[C@H](C)[C@H](NC(=O)[C@H](Cc1ccccc1)NC(=O)[C@H](CCC(=O)O)NC(=O)[C@H](CCCNC(=N)N)NC(=O)[C@H](C)NC(=O)[C@H](C)NC(=O)[C@H](CCC(N)=O)NC(=O)[C@H](CCC(=O)O)NC(=O)[C@H](CCC(=O)O)NC(=O)[C@H](CC(C)C)NC(=O)[C@H](Cc1ccc(O)cc1)NC(=O)[C@H](CO)NC(=O)[C@H](CO)NC(=O)[C@@H](NC(=O)[C@H](CC(=O)O)NC(=O)[C@H](CO)NC(=O)[C@@H](NC(=O)[C@H](Cc1ccccc1)NC(=O)[C@@H](NC(=O)CNC(=O)[C@H](CCC(=O)O)NC(=O)C(C)(C)NC(=O)[C@@H](N)Cc1c[nH]cn1)[C@@H](C)O)[C@@H](C)O)C(C)C)C(=O)N[C@@H](C)C(=O)N[C@@H](Cc1c[nH]c2ccccc12)C(=O)N[C@@H](CC(C)C)C(=O)N[C@H](C(=O)N[C@@H](CCCNC(=N)N)C(=O)NCC(=O)N[C@@H](CCCNC(=N)N)C(=O)N[C@@H](CCCCNC(=O)CN(CCCNC(=O)CCOCCOCCOCCOCCNC(=O)CCOCCOCCOCCOCCNC(=O)CCOCCOCCOCCOCCNC(=O)[C@@H](N)CCCCNC(=O)[C@@H](N)CCCCNC(=O)CCCCCCCCCCCCCCCCCCC(=O)O)CCCNC(=O)CCOCCOCCOCCOCCNC(=O)CCOCCOCCOCCOCCNC(=O)CCOCCOCCOCCOCCNC(=O)[C@@H](N)CCCCNC(=O)[C@@H](N)CCCCNC(=O)CCCCCCCCCCCCCCCCCCC(=O)O)C(=O)O)C(C)C", "note": "[Example 5, N{Epsilon-37}-[2-[bis[3-[3-[2-[2-[2-[2-[3-[2-[2-[2-[2-[3-[2-[2-[2-[2-[[(2S)-2-amino-6-[[(2S)-2-amino-6-(19-carboxynonadecanoylamino)hexanoyl]amino]hexanoyl]amino]ethoxy]ethoxy]ethoxy]ethoxy]propanoylamino]ethoxy]ethoxy]ethoxy]ethoxy]propanoylamino]ethoxy]ethoxy]ethoxy]ethoxy]propanoylamino]propyl]amino]acetyl]-[Aib8,Glu22,Arg26,Arg34,Lys37]-GLP-1-(7-37)-peptide]", "values": [
      {"measurement": "half-life", "setting": "[1]", "value": 122, "unit": "h"}
    ]},
    {"compound": "CC[C@H](C)[C@H](NC(=O)[C@H](Cc1ccccc1)NC(=O)[C@H](CCC(=O)O)NC(=O)[C@H](CCCNC(=N)N)NC(=O)[C@H](C)NC(=O)[C@H](C)NC(=O)[C@H](CCC(N)=O)NC(=O)[C@H](CCC(=O)O)NC(=O)[C@H](CCC(=O)O)NC(=O)[C@H](CC(C)C)NC(=O)[C@H](Cc1ccc(O)cc1)NC(=O)[C@H](CO)NC(=O)[C@H](CO)NC(=O)[C@@H](NC(=O)[C@H](CC(=O)O)NC(=O)[C@H](CO)NC(=O)[C@@H](NC(=O)[C@H](Cc1ccccc1)NC(=O)[C@@H](NC(=O)CNC(=O)[C@H](CCC(=O)O)NC(=O)C(C)(C)NC(=O)CCc1cnc[nH]1)[C@@H](C)O)[C@@H](C)O)C(C)C)C(=O)N[C@@H](C)C(=O)N[C@@H](Cc1c[nH]c2ccccc12)C(=O)N[C@@H](CC(C)C)C(=O)N[C@H](C(=O)N[C@@H](CCCNC(=N)N)C(=O)NCC(=O)N[C@@H](CCCNC(=N)N)C(=O)N[C@@H](CCCCNC(=O)CN(CCCNC(=O)COCCOCCNC(=O)COCCOCCNC(=O)COCCOCCNC(=O)COCCOCCNC(=O)[C@@H](N)CCCCNC(=O)[C@@H](N)CCCCNC(=O)CCCCCCCCCCCCCCCCCCC(=O)O)CCCNC(=O)COCCOCCNC(=O)COCCOCCNC(=O)COCCOCCNC(=O)COCCOCCNC(=O)[C@@H](N)CCCCNC(=O)[C@@H](N)CCCCNC(=O)CCCCCCCCCCCCCCCCCCC(=O)O)C(=O)O)C(C)C", "note": "[Example 4]", "values": [
      {"measurement": "IC50", "setting": "[2]; [4]", "value": 0.13, "unit": "nM"},
      {"measurement": "half-life", "setting": "[1]", "value": 243, "unit": "h"}
    ]},
    {"compound": "CC[C@H](C)[C@H](NC(=O)[C@H](Cc1ccccc1)NC(=O)[C@H](CCC(=O)O)NC(=O)[C@H](CCCNC(=N)N)NC(=O)[C@H](C)NC(=O)[C@H](C)NC(=O)[C@H](CCC(N)=O)NC(=O)[C@H](CCC(=O)O)NC(=O)[C@H](CCC(=O)O)NC(=O)[C@H](CC(C)C)NC(=O)[C@H](Cc1ccc(O)cc1)NC(=O)[C@H](CO)NC(=O)[C@H](CO)NC(=O)[C@@H](NC(=O)[C@H](CC(=O)O)NC(=O)[C@H](CO)NC(=O)[C@@H](NC(=O)[C@H](Cc1ccccc1)NC(=O)[C@@H](NC(=O)CNC(=O)[C@H](CCC(=O)O)NC(=O)C(C)(C)NC(=O)[C@@H](N)Cc1c[nH]cn1)[C@@H](C)O)[C@@H](C)O)C(C)C)C(=O)N[C@@H](C)C(=O)N[C@@H](Cc1c[nH]c2ccccc12)C(=O)N[C@@H](CC(C)C)C(=O)N[C@H](C(=O)N[C@@H](CCCNC(=N)N)C(=O)NCC(=O)N[C@@H](CCCNC(=N)N)C(=O)N[C@@H](CCCCNC(=O)CN(CCCNC(=O)COCCOCCNC(=O)COCCOCCNC(=O)COCCOCCNC(=O)COCCOCCNC(=O)COCCOCCNC(=O)[C@@H](N)CCCCNC(=O)[C@@H](N)CCCCNC(=O)CCCCCCCCCCCCCCCCCCC(=O)O)CCCNC(=O)COCCOCCNC(=O)COCCOCCNC(=O)COCCOCCNC(=O)COCCOCCNC(=O)COCCOCCNC(=O)[C@@H](N)CCCCNC(=O)[C@@H](N)CCCCNC(=O)CCCCCCCCCCCCCCCCCCC(=O)O)C(=O)O)C(C)C", "note": "[Example 1, N{Epsilon-37}-[2-[bis[3-[[2-[2-[2-[[2-[2-[2-[[2-[2-[2-[[2-[2-[2-[[2-[2-[2-[[(2S)-2-amino-6-[[(2S)-2-amino-6-(19-carboxynonadecanoylamino)hexanoyl]amino]hexanoyl]amino]ethoxy]ethoxy]acetyl]amino]ethoxy]ethoxy]acetyl]amino]ethoxy]ethoxy]acetyl]amino]ethoxy]ethoxy]acetyl]amino]ethoxy]ethoxy]acetyl]amino]propyl]amino]acetyl]-[Ab8,Glu22,Arg26,Arg34,Lys37]-GLP-1-(7-37)-peptide]", "values": [
      {"measurement": "half-life", "setting": "[1]", "value": 130, "unit": "h"}
    ]},
    {"compound": "CC[C@H](C)[C@H](NC(=O)[C@H](Cc1ccccc1)NC(=O)[C@H](CCC(=O)O)NC(=O)[C@H](CCCNC(=N)N)NC(=O)[C@H](C)NC(=O)[C@H](C)NC(=O)[C@H](CCC(N)=O)NC(=O)[C@H](CCC(=O)O)NC(=O)[C@H](CCC(=O)O)NC(=O)[C@H](CC(C)C)NC(=O)[C@H](Cc1ccc(O)cc1)NC(=O)[C@H](CO)NC(=O)[C@H](CO)NC(=O)[C@@H](NC(=O)[C@H](CC(=O)O)NC(=O)[C@H](CO)NC(=O)[C@@H](NC(=O)[C@H](Cc1ccccc1)NC(=O)[C@@H](NC(=O)CNC(=O)[C@H](CCC(=O)O)NC(=O)C(C)(C)NC(=O)[C@@H](N)Cc1c[nH]cn1)[C@@H](C)O)[C@@H](C)O)C(C)C)C(=O)N[C@@H](C)C(=O)N[C@@H](Cc1c[nH]c2ccccc12)C(=O)N[C@@H](CC(C)C)C(=O)N[C@H](C(=O)N[C@@H](CCCNC(=N)N)C(=O)NCC(=O)N[C@@H](CCCNC(=N)N)C(=O)N[C@@H](CCCCNC(=O)CN(CCCNC(=O)COCCOCCNC(=O)COCCOCCNC(=O)COCCOCCNC(=O)COCCOCCNC(=O)COCCOCCNC(=O)CC[C@H](NC(=O)CCCNC(=O)CCCCCCCCCCCCCCCS(=O)(=O)O)C(=O)O)CCCNC(=O)COCCOCCNC(=O)COCCOCCNC(=O)COCCOCCNC(=O)COCCOCCNC(=O)COCCOCCNC(=O)CC[C@H](NC(=O)CCCNC(=O)CCCCCCCCCCCCCCCS(=O)(=O)O)C(=O)O)C(=O)O)C(C)C", "note": "[Example 17, N{Epsilon-37}-[2-[bis[3-[[2-[2-[2-[[2-[2-[2-[[2-[2-[2-[[2-[2-[2-[[2-[2-[2-[[(4S)-4-carboxy-4-[4-(16-sulfohexadecanoylamino)butanoylamino]butanoyl]amino]ethoxy]ethoxy]acetyl]amino]ethoxy]ethoxy]acetyl]amino]ethoxy]ethoxy]acetyl]amino]ethoxy]ethoxy]acetyl]amino]ethoxy]ethoxy]acetyl]amino]propyl]amino]acetyl]-[Aib8,Glu22,Arg26,Arg34,Lys37]-GLP-1-(7-37)-peptide]", "values": [
      {"measurement": "EC50", "setting": "[3]; whole cell reporter gene assay, BHK cells, human GLP-1 receptor, average of at least two replicates, read-out: EC50", "value": 0.0012, "unit": "nM"},
      {"measurement": "IC50", "setting": "[2]; high HSA (2.0% final assay concentration), read-out: High HSA IC50", "value": 3.2, "unit": "nM"},
      {"measurement": "IC50", "setting": "[2]; [4]", "value": 0.16, "unit": "nM"}
    ]},
    {"compound": "CC[C@H](C)[C@H](NC(=O)[C@H](Cc1ccccc1)NC(=O)[C@H](CCC(=O)O)NC(=O)[C@H](CCCNC(=N)N)NC(=O)[C@H](C)NC(=O)[C@H](C)NC(=O)[C@H](CCC(N)=O)NC(=O)[C@H](CCC(=O)O)NC(=O)[C@H](CCC(=O)O)NC(=O)[C@H](CC(C)C)NC(=O)[C@H](Cc1ccc(O)cc1)NC(=O)[C@H](CO)NC(=O)[C@H](CO)NC(=O)[C@@H](NC(=O)[C@H](CC(=O)O)NC(=O)[C@H](CO)NC(=O)[C@@H](NC(=O)[C@H](Cc1ccccc1)NC(=O)[C@@H](NC(=O)CNC(=O)[C@H](CCC(=O)O)NC(=O)C(C)(C)NC(=O)[C@@H](N)Cc1c[nH]cn1)[C@@H](C)O)[C@@H](C)O)C(C)C)C(=O)N[C@@H](C)C(=O)N[C@@H](Cc1c[nH]c2ccccc12)C(=O)N[C@@H](CC(C)C)C(=O)N[C@H](C(=O)N[C@@H](CCCNC(=N)N)C(=O)NCC(=O)N[C@@H](CCCNC(=N)N)C(=O)N[C@@H](CCCCNC(=O)CN(CCCNC(=O)COCCOCCNC(=O)COCCOCCNC(=O)COCCOCCNC(=O)COCCOCCNC(=O)COCCOCCNC(=O)COCCOCCNC(=O)CC[C@H](NC(=O)CCCNC(=O)CCCCCCCCCCCCCCCS(=O)(=O)O)C(=O)O)CCCNC(=O)COCCOCCNC(=O)COCCOCCNC(=O)COCCOCCNC(=O)COCCOCCNC(=O)COCCOCCNC(=O)COCCOCCNC(=O)CC[C@H](NC(=O)CCCNC(=O)CCCCCCCCCCCCCCCS(=O)(=O)O)C(=O)O)C(=O)O)C(C)C", "note": "[Example 18, N{Epsilon-37}-[2-[bis[3-[[2-[2-[2-[[2-[2-[2-[[2-[2-[2-[[2-[2-[2-[[2-[2-[2-[[2-[2-[2-[[(4S)-4-carboxy-4-[4-(16-sulfohexadecanoylamino)butanoylamino]butanoyl]amino]ethoxy]ethoxy]acetyl]amino]ethoxy]ethoxy]acetyl]amino]ethoxy]ethoxy]acetyl]amino]ethoxy]ethoxy]acetyl]amino]ethoxy]ethoxy]acetyl]amino]ethoxy]ethoxy]acetyl]amino]propyl]amino]acetyl]-[Aib8,Glu22,Arg26,Arg34,Lys37]-GLP-1-(7-37)-peptide]", "values": [
      {"measurement": "EC50", "setting": "[3]", "value": 0.0013, "unit": "nM"},
      {"measurement": "IC50", "setting": "[2]; High HSA IC50, high HSA (2.0% final assay concentration)", "value": 5.7, "unit": "nM"},
      {"measurement": "IC50", "setting": "[2]; Low HSA IC50, low HSA (max. 0.001% final assay concentration)", "value": 0.18, "unit": "nM"}
    ]}
  ]
}
